{
  "source": "patent US4900658A",
  "about": "“Chromophoric peptides for detecting peptidylglycine-α-amidizing monooxygenase” (Hoechst Aktiengesellschaft, priority 1986, dated 1990)",
  "molecular_target": "peptidylglycine-α-amidizing monooxygenase (PAM) (Bos taurus, UniProt P10731)",
  "sequence (P10731 31-972)": "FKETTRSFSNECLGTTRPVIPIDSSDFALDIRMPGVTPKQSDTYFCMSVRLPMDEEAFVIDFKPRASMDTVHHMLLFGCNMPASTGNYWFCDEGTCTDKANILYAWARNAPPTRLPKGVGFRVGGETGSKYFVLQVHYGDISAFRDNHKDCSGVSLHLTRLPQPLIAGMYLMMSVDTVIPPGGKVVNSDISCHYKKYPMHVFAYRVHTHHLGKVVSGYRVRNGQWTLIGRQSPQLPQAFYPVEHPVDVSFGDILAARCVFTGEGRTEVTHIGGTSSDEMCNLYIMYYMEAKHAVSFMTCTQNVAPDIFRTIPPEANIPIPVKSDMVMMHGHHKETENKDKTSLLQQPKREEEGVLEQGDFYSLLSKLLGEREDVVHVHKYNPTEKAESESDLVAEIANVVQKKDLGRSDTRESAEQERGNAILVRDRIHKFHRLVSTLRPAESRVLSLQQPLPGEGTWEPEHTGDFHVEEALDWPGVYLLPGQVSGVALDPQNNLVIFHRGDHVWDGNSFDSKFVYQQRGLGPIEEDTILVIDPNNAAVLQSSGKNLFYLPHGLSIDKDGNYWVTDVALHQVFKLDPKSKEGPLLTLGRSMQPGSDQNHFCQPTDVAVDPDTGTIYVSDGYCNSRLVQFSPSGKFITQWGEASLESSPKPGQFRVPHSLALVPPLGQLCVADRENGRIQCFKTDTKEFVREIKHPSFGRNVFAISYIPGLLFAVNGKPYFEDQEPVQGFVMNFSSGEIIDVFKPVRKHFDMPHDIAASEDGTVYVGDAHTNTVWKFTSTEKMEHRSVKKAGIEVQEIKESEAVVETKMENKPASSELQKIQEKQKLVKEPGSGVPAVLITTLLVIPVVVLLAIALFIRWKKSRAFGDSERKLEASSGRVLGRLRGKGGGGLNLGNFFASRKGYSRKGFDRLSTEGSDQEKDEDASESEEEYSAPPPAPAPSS",
  "conditions": "after 3 hours",
  "note": "Where a SMILES comes first, the peptide text is derived from it. [ ]: non-standard residue; d: D form. The star is where a group is joined. Dansyl = CN(C)c1cccc2c(S(=O)(=O)*)cccc12",
  "procedure": "The tests with the substrate, according to the invention, of the formula I (R=Gly--OH) and with the comparison substance of the formula I (R=NH2) were carried out both with the crude fractions and also with the enriched fractions.\nProcedure for enzyme assay using the substrate of the formula I (R=Gly--OH) and the reference substance of the formula II (R=NH2)\nThe enzyme tests are carried out in a buffer of pH 7.4. The aqueous buffer is composed of the buffer substance N-[tris-(hydroxymethyl)-methyl]-2-amino-ethanesulfonic acid (100 mM), CuSO4 (3 μM), peptide substrate of the formula I (R=Gly--OH) (50 μM) and catalase from bovine liver (100 μg/ml). 100 μl of this buffer solution are incubated with 100 μl of the solution containing PAM, and, after 3 hours at 37° C., the reaction is stopped by adding 700 μl of CH2 Cl2. […] After the mixture has been centrifuged and the organic phase removed, the latter is evaporated in a vacuum centrifuge and the residue is again taken up in a constant volume of CH2 Cl2. All operations are carried out with exclusion of light in order to prevent photo-reactions of the light-sensitive substrate. […] Quantification of the resulting amide of the formula I (R=NH2) by means of a thin layer scanner is made possible by simultaneously applying the peptide amide of the formula II in various concentrations as a reference.",
  "data": [
    {"smiles": "C[C@@H](NS(=O)(=O)c1cccc2c(N(C)C)cccc12)C(=O)N1CCC[C@H]1C(=O)NCC(=O)O", "note": "[DIS-D-Ala--Pro--Gly--OH, DIS--D--Ala--Pro--Gly--OH] (Dansyl-[dA]-Pro-Gly-OH)", "values": [
      {"measurement": "Share of the substrate reacted", "value": "approx. 5%"}
    ]}
  ]
}
